“And” between values parts separate entries of the source, which are not always exact repeats. Equal entries are not always repeated. “Also recorded” adds a separate entry of the source. Where two headings read alike, the source gives them in different places.
Experiments:
[1] = system: GABAAR containing single α-subunits; experiment: Patch clamp assay of chloride-flux inward currents at GABAAR containing single α-subunits (FIG. 12); format: cell-based; details: dose-response curves, α4 or α6 GABAAR compared to other α-subtypes
Source text: Selectivity is quantified by dose-response curves showing greater inward currents (i.e., agonist activity) by action of GABAAR bearing a4 or a6 compared to other α-subtypes.
Two compounds having selective activity bias for α4-GABAAR were identified (FIG. 12). Patch clamp assays were used to quantify chloride flux induced inward currents resulting from agonism of GABAAR containing single α-subunits.

murine tracheal rings = experiment: Relaxation of acetylcholine-induced contraction in murine tracheal rings (wild type and GABAA α4 knockout), Example 13; details: CMD-45 100 uM, 30 minutes, ACh ~EC50; wild type vs GABAA α4 knockout mice; p<0.01 vs vehicle
Source text: Adult male C57/B16 wild type mice or adult male mice globally deficient in the GABAA a4 subunit (from Dr. Gregg Homanics, University of Pittsburgh) were euthanized with an overdose of sodium pentobarbital. Tracheas were rapidly removed and placed in modified Krebs-Henseleit buffer of the following composition in mM: 115 NaCl, 2.5 KCl, 1.91 CaCl2, 2.46 MgSO4, 1.38 NaH2PO4, 25 NaHCO3, 5.56 D-glucose: pH 7.4 Connective tissue was removed under a dissecting microscope and tracheas were cut in half axially. One-half trachea was used in each chamber of a myograph bath (DMT: Ann Arbor, Mich.), one-half used for vehicle treatment and the other half used for drug (i.e. CMD-45) treatment. […] Tension was continuously digitally recorded using BioPac hardware connected to Acknowledge software. […] An ACh ˜EC50 was determined for each tracheal ring based on these dose response curves.
In relaxation studies, tracheal ring were contracted to the determined ˜EC50 and force was allowed to plateau. Single concentrations of vehicle (0.1% DMSO) or CMD-45 (100 uM) were added and continuous muscle force was measured over 30 minutes. The data are expressed as the percent of remaining tone at 30 minutes relative to the initial force achieved with the EC50 concentration of acetylcholine. […]

human Jurkat E6-1 cells = experiment: Automated patch clamp (IonFlux) for potentiation of GABA, membrane polarization in Jurkat E6-1 cells; format: cell-based; details: tested with 0.1 μM GABA; preliminary assay development studies
Protocol: Inserts show inward rectifying currents ([…]) at various doses. Compounds tested with 0.1 μM GABA. Curves show average of four determinations at indicated doses and standard deviations.
Both compounds were investigated using a CD4+ T-lymphocyte cell line (Jurkat E6-1) for potentiation of GABA using automated patch clamp (IonFlux). In contrast to manual patch clamp assays; this high throughput system enables dose dependent efficacy testing of more than 20 test conditions per day.

GP tracheal rings = experiment: Direct relaxation of guinea pig tracheal rings contracted with TEA or substance P; details: CM-D-45 200 um, 15 minutes
Protocol: Male Hartley guinea pigs (approximately 400 g) were anesthetized with intraperitoneal pentobarbital (100 mg/kg). Trachea were removed and dissected under a dissecting microscope into closed rings comprised of two cartilaginous segments. Epithelium was removed by gentle abrasion on the tracheal lumen with cotton. Tissues were placed into cold Krebs-Henseleit (KH) buffer (in mM: NaCl 118, KCl 5.6, CaCl2 0.5, MgSO4 0.24, NaH2PO4 1.3, NaHCO3 25, glucose 5.6, pH 7.4) containing indomethacin 10 uM (DMSO final concentration in organ baths of 0.01%) to block tone due to endogenous release of prostanoids. […]
To determine the direct relaxant effect of α4 subunit containing GABAA receptor activation using different contractile agonists, GP tracheal rings prepared according to Reference Example 3 were contracted with a single dose (10 mM) of TEA or (1 uM) substance P. Following a plateau in the generated muscle force, a single dose of CM-D-45 (200 um) or vehicle control (DMSO 0.1%) was added to the organ bath buffer and the percentage of relaxation achieved was assessed over 15 minutes in comparison to intra-experimental matched vehicle controls.

[2] = system: Guinea pig tracheal rings; experiment: Airway smooth muscle force in guinea pig ex vivo tracheal rings, Example 20; details: added after acetylcholine EC50 contraction
Protocol: Male (400 g) Dunkin Hartley guinea pigs were anesthetized with 100 mg/kg pentobarbital. Trachea were removed and divided into 8 closed circular rings each comprised of 2 cartilagenous segments. Adventitia and epithelium were dissected off under a microscope. Closed rings were suspended in 2 ml Radnoti organ baths connected to a Grass FT03 force transducer under 1 g resting tension at 37° C. with bubbled oxygenation 95% O2/5% CO2 and allowed to equilibrate for 1 h at resting tension with buffer exchanges every 15 min. Continuous digital recording of airway smooth muscle contractile force was done with Biopac hardware connected to Acknowledge v 7.3.3 software. Preliminary contractile challenges with performed with acetylcholine dose responses (0.1 nM-100 uM) 3 times with buffer exchanges and resetting of resting tension between each dose response. The Guinea pig tracheal rings were contracted with acetylcholine (an EC50 concentration for each ring). Following stabilization of the contractile force, the GABAA α5 selective negative modulator or the GABAA non-selective antagonist gabazine was added to the buffer.

GABAA receptors [3] = experiment: Whole cell voltage clamp electrophysiology (Fluxion microfluidic plate) of human airway smooth muscle cells; format: cell-based
Protocol: (§1) Human immortalized bronchial smooth muscle cell lines prepared as described were grown to confluence in M199 media (Gibco) containing 10% fetal bovine serum, 0.25 ng/ml epidermal growth factor, 1 ng/ml fibroblast growth factor, ITS supplement (1 mg/ml insulin, 0.55 mg/ml transferrin, 0.67 ug/ml sodium selenium) and antibiotics (100 units/ml penicillin G sodium, 100 μg/ml streptomycin sulfate, 0.25 μg/ml amphotericin B) in a humidified atmosphere of 5% CO2/95% air at 37° C. Twenty four hours prior to study, cells were fed with serum and growth factor free media.
On the day of the assay, human airway smooth muscle cells (prepared as described in Reference Examples 1 and 2) were released from collagen-coated plates with collagenase type IV (Sigma C5138; 500 units/ml). The cells were resuspended in external buffer solution (In mM: NaCl 147, MgCl2 2, CaCl2 2, HEPES 10, dextrose 10; pH 7.2, osmolarity 320 mOsm) and rocked at room temperature to allow cells to obtain a spherical shape. Approximately 1 million cells were centrifuged (300×g, 3 min), washed ×2 in external buffer, and loaded (final volume of 400 uL) into a Fluxion microfluidic plate with each experimental group representing an ordered arrangement of 20 cells in parallel whole cell configuration. Following generation of adequate cellular membrane seals (40-120 MΩ), whole cell recordings were obtained under voltage clamp conditions (−80 mV) to a dose response to THIP (0.3 uM-300 uM). In separate assays cells were also co-treated simultaneously with 20 uM gabazine (GABAA receptor antagonist) and 25 uM THIP. In addition, to confirm that THIP-induced currents were due to chloride efflux, in separate experiments the intracellualar buffer (in mM: MgCl2 4, EGTA 10, HEPES 10, CsCl 130, Mg-ATP 4, CsOH 10, pH 7.2, 290 mOsM) was modified by replacing […] CsCl with 140 Cs gluconate to inhibit the magnitude of the […] current at −80 mV.

GABAA receptors [4] = experiment: FLIPR membrane potential fluorescent dye assay in cultured human airway smooth muscle cells; format: cell-based; details: for antagonism of THIP-induced fluorescent / membrane potential changes: picrotoxin 200 uM, THIP 500 uM and 1 mM
Protocol: as §1
To determine whether activation of GABAA receptors induces membrane potential changes in cultured human airway smooth muscle cells the FLIPR in vitro fluorescent dye assay (Molecular Devices) was used. Human airway smooth muscle cells (prepared as described in Reference Examples 1 and 2) were grown to 100% confluence in 96 well black-walled plates and were washed with warmed (37° C.) low chloride buffer (consisting of in mM: 160 sodium-D-gluconate, 4.5 potassium-D-gluconate, 2 CaCl2, 1 MgCl2, 10 D-glucose, and 10 Hepes pH 7.4) four times. A stock solution (100% dye) of FLIPR blue dye was prepared by reconstitution of 1 vial (125 mg) with 100 ml of the low chloride buffer (assay buffer). A 50% working stock was prepared by further diluting the reconstituted blue dye 1:1 with assay buffer and was used to load cells (90 ul/well) over 20 minutes at 37° C. All reagents were dissolved in assay buffer. Baseline fluorescence was measured for 3 min prior to the first control additions (assay buffer). Three minutes later, airway smooth muscle cells were exposed to varying concentrations of THIP (0-10 mM) to determine a dose response. The fluorescence produced by membrane potential change following solution additions was quantified after subtracting changes induced by assay buffer alone. For subsequent antagonist assays, the first solution injected was either assay buffer, vehicle control (0.05% DMSO final), or the GABAA receptor antagonist picrotoxin (200 uM final) followed THIP (either 0.5 or 1 mM).

[5] = system: Guinea pig (GP) tracheal rings; experiment: Isoproterenol-mediated relaxation of acetylcholine-contracted guinea pig tracheal rings with α4 GABAA selective agonist; details: for potentiation of isoproterenol-mediated relaxation: single dose 500 uM THIP or 200 uM taurine, acetylcholine pre-contracted; for EC50: Cavia porcellus, read-out: EC50 of isoproterenol relaxation concentration-response curve

Work on COc1ccc2c(c1)C(=O)N1CCC[C@H]1c1c(C(=O)OC(C)C)ncn1-2 yielded a melting point of 215 to 217 °C.
In the case of CNC(=O)c1ncn2c1[C@@H]1CCCN1C(=O)c1cc(OC)ccc1-2 [CM-D-45, N-methyl (S)-11,12,13,13a-tetrahydro-7-methoxy-9-oxo-9H-imidazo-[1,5-a]pyrrolo-[2,1-c][1,4]-benzodiazepine-1-carboxamide], the “functional selectivity among GABAAR α-subtypes (inward currents, agonist activity)” value [1] is reported as “selectivity bias in favor or α4 and α6-GABAAR”, the “relaxation of an acetylcholine induced contraction (percent of remaining tone)” value (murine tracheal rings) is reported as “relaxation of an acetylcholine (Ach) induced contraction in murine tracheal rings from wild-type but not GABAA α4 knockout mice” and the “membrane polarization, inward rectifying currents” value (human Jurkat E6-1 cells) is reported as “hyperpolarizing membrane dose-response signals can be generated”. The “muscle force, % of initial force remaining after substance P contraction” value (GP tracheal rings; 1 uM substance P contraction) was 61.3% and 61.3±16.9% and the “muscle force, % of initial TEA-induced force remaining” value (GP tracheal rings; 10 mM TEA contraction) was 54.3% and 54.3±14.3%.
For COCc1ncn2c1CN(C)C(=O)c1cc(Cl)ccc1-2 [PWZ-029], the “change in airway smooth muscle force” value [2] was “increase in force”.
For Oc1noc2c1CCNC2 [THIP], the mean evoked current (GABAA receptors [3]; 10 uM THIP, 11/12 arrays of 20 cells in whole cell configuration) was −670.4+27.6 pA, the EC50 (GABAA receptors [3]; THIP 0 to 300 uM, voltage clamped at −80 mV, read-out: EC50, current elicited in whole cell configuration) was ~15000 nM and 15000 nM and the EC50 (GABAA receptors [4]; THIP 0 to 10 mM, low chloride buffer, n=12, read-out: EC50, change in relative fluorescence (membrane potential)) was 245000 nM. For the same compound, the “muscle force, % of initial acetylcholine-induced force” value ([5]; THIP (500 uM) plus isoproterenol, n=8) was 22.9 ±13.2% and the “potentiation of isoproterenol-mediated relaxation” value [5] was “significantly potentiated the relaxant effects of isoproterenol”.
In the case of COc1ccc(-c2ccc(=N)n(CCCC(=O)O)n2)cc1 [gabazine], the “attenuation of THIP induced whole cell currents” value (GABAA receptors [3]; gabazine with THIP 25 uM, −80 mV) is reported as “attenuation of the THIP-induced current; also recorded: attenuation of THIP induced whole cell currents”, the “reversal of agonist potentiation of isoproterenol-mediated relaxation” value ([5]; gabazine pretreatment 15 min prior to acetylcholine) is reported as “significantly reversed the THIP potentiation of isoproterenol-mediated relaxation; also recorded: significantly reversed the potentiation of isoproterenol-mediated relaxation provided by taurine” and the “muscle force, % of initial acetylcholine-induced force” value ([5]; gabazine pretreatment, then THIP plus isoproterenol, n=8) is reported as 53.1±11.4%.
Compound CC(C)NCC(O)c1ccc(O)c(O)c1 (stereo not shown) [isoproterenol] has an EC50 ([5]; isoproterenol after a single concentration of 200 uM taurine, n=7) of 2.4 nM, an EC50 ([5]; isoproterenol after a single concentration of 500 uM THIP, n=8) of 7.6 ± 0.5 nM and an EC50 ([5]; isoproterenol only (THIP experiment), n=8) of 32.8 nM. It also gave an EC50 ([5]; isoproterenol only (taurine experiment), n=6) of 15.8 nM, an EC50 ([5]; isoproterenol with 200 uM taurine subsequent to 200 μM gabazine pretreatment, n=7) of 4.7 nM and an EC50 ([5]; isoproterenol with 500 uM THIP subsequent to 500 μM gabazine pretreatment, n=8) of 11.8 ± 0.6 nM. For the same compound, the “muscle force, % of initial acetylcholine-induced force” value ([5]; isoproterenol alone at low concentration, n=8) was 76.5±8.5%.
For NCCS(=O)(=O)O [taurine], the “potentiation of isoproterenol-mediated relaxation” value [5] was “potentiated isoproterenol-mediated relaxation”.
For picrotoxin, the “antagonism of THIP-induced fluorescent / membrane potential changes” value (GABAA receptors [4]) was “attenuation of THIP-induced fluorescent changes” and the “antagonism of THIP-induced fluorescent / membrane potential changes” value (GABAA receptors [4]; listed as Picrotoxin) was “antagonism of THIP mediated membrane potential changes persisted even under conditions of high dose THIP”.

— US9879020B2, “GABAA agonists and methods of using to control airway hyperresponsiveness and inflammation in asthma” (priority 2012, dated 2018)
